# From ChEMBL document CHEMBL1201862, “PubChem BioAssay data set” (2004)
#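 Briefly, cells in 96-well plates were exposed to five compound concentrations for 48 h, and endpoints were estimated by linear interpolation. GI50 is the concentration that inhibits growth by half.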 Activity calls are given as the source filed them. Rule as the data show it: active = GI50 up to about 1.1 µM and inactive = higher.
# What was measured:
# Assay in all cases: inhibition of tumour cell growth, NCI panel, 48 h
# DMS-114 = system: DMS-114
# LXFL 529 = system: LXFL 529
# HOP-18 = system: HOP-18
# KM-20L2 = system: KM-20L2
# DLD-1 = system: DLD-1
# SNB-78 = system: SNB-78
# DMS-273 = system: DMS-273
# XF498 = system: XF498
# RXF 631 = system: RXF 631
SMILES,GI50 (DMS-114),GI50 (LXFL 529),GI50 (HOP-18),GI50 (KM-20L2),GI50 (DLD-1),GI50 (SNB-78),GI50 (DMS-273),GI50 (XF498),GI50 (RXF 631)
CSCSCC(CO)NC(=O)/C=C/c1c(C)nc(O)nc1O (stereo not given),64.9 µM (inactive),> 100 µM (inactive),> 100 µM (inactive),46.8 µM (inactive),> 100 µM (inactive),> 100 µM (inactive),> 100 µM (inactive),,
Cc1ccc(C)c(N2C(=O)C(=O)C(c3nc4ccccc4o3)/C(=N/N)C2=O)c1 (stereo not given),> 100 µM (inactive),> 100 µM (inactive),> 100 µM (inactive),> 100 µM (inactive),> 100 µM (inactive),> 100 µM (inactive),> 100 µM (inactive),47.6 µM (inactive),
COc1cc(C(=O)NC2CCc3cc(OC)c(OC)c(OC)c3-c3ccc(OC)c(=O)cc32)cc(OC)c1OC (stereo not given),0.0233 µM (active),0.0272 µM (active),> 29.4 µM (inactive),0.0817 µM (active),0.265 µM (active),0.0232 µM (active),0.0316 µM (active),0.15 µM (active),
C/C=C(/I)CBr,12.6 µM (inactive),13.7 µM (inactive),,29.5 µM (inactive),15.4 µM (inactive),29 µM (inactive),,13.5 µM (inactive),15.3 µM (inactive)
CC(=O)OC1=CC(n2cc(F)c(=O)[nH]c2=O)OC(C)C1=O (stereo not given),99.3 µM (inactive),> 100 µM (inactive),> 100 µM (inactive),,97.3 µM (inactive),> 100 µM (inactive),41.5 µM (inactive),> 100 µM (inactive),
COC(=O)C(CCCC1(c2ccccc2)OCCO1)C(C)=O (stereo not given),,> 100 µM (inactive),> 100 µM (inactive),> 100 µM (inactive),> 100 µM (inactive),> 100 µM (inactive),> 100 µM (inactive),> 100 µM (inactive),> 100 µM (inactive)
COc1ccc(C(=O)C(c2ccc(OC)cc2)C2(O)C(=O)Nc3c(Cl)cc(Cl)cc32)cc1 (stereo not given),18.4 µM (inactive),15 µM (inactive),20.1 µM (inactive),21.1 µM (inactive),19.2 µM (inactive),18.3 µM (inactive),16.3 µM (inactive),22.4 µM (inactive),
O=C(c1ccc(Cl)cc1)c1ccc(OCC(=O)N2CCN(c3ccccc3)CC2)cc1,33.2 µM (inactive),52.7 µM (inactive),> 100 µM (inactive),> 100 µM (inactive),> 100 µM (inactive),56.4 µM (inactive),,> 100 µM (inactive),
CC1=NN=C(NCCN(C)C)C/C1=C/c1ccccc1Cl,> 100 µM (inactive),> 100 µM (inactive),61.7 µM (inactive),58.3 µM (inactive),> 100 µM (inactive),> 100 µM (inactive),> 100 µM (inactive),77.3 µM (inactive),67.5 µM (inactive)
COc1cc2[nH]c3c(c2cc1OC)CCN[C@@]31CC[C@@]2(CC3c4c(cc(OC)c(O)c42)CCN3C)C[C@@H]1OC (stereo not given in full),20.2 µM (inactive),40.1 µM (inactive),> 38.7 µM (inactive),34 µM (inactive),53 µM (inactive),> 85.3 µM (inactive),41.2 µM (inactive),17.1 µM (inactive),7.78 µM (inactive)
O=C1C=C(c2c(O)ccc3ccccc23)c2cc(O)ccc2C1=O,6.14 µM (inactive),6.4 µM (inactive),26.1 µM (inactive),20 µM (inactive),16.9 µM (inactive),19.2 µM (inactive),15.3 µM (inactive),11.1 µM (inactive),
CC(C(=O)n1c2ccccc2c2ccccc21)N(c1ccccc1)c1ccccc1 (stereo not given),17.4 µM (inactive),14.4 µM (inactive),,18.9 µM (inactive),17.8 µM (inactive),15.6 µM (inactive),18.7 µM (inactive),,
COc1ccc(/C=C/C(=O)c2c(-c3ccccc3)nn(C)c(=O)c2N2CC2C)cc1 (stereo not given),24.7 µM (inactive),25.1 µM (inactive),27.5 µM (inactive),23.9 µM (inactive),26.1 µM (inactive),30.1 µM (inactive),21 µM (inactive),,
CC1=C(C(=O)Nc2ccccc2)C(c2ccc([N+](=O)[O-])cc2)C(C(=O)Nc2ccccc2)=C(C)N1,20.7 µM (inactive),17.4 µM (inactive),,18.3 µM (inactive),26.6 µM (inactive),33.8 µM (inactive),24.4 µM (inactive),15.1 µM (inactive),21.2 µM (inactive)
Cc1cc2c(cc1C)[n+]([O-])c(-c1c(Cl)cccc1Cl)c(N)[n+]2[O-],22.6 µM (inactive),31.6 µM (inactive),18.9 µM (inactive),40 µM (inactive),30.7 µM (inactive),43.9 µM (inactive),32.1 µM (inactive),,18.2 µM (inactive)
O=C1OC(CC(=O)c2ccccc2Cl)C(Cl)=C1Cl (stereo not given),> 100 µM (inactive),> 100 µM (inactive),> 100 µM (inactive),,> 100 µM (inactive),33 µM (inactive),,,62.4 µM (inactive)
CS/C(=N\C(=S)Nc1ccccc1)Nc1ccccc1,0.743 µM (active),,,31 µM (inactive),,40.3 µM (inactive),> 10 µM (inactive),,
COC1OC(C)C(OC(=O)C(C)(C)C)C(C)(O)C1O (stereo not given),,> 100 µM (inactive),> 100 µM (inactive),> 100 µM (inactive),> 100 µM (inactive),81.5 µM (inactive),> 100 µM (inactive),> 100 µM (inactive),
CCN(CC)CC(C(=O)Nc1c(C)cccc1C)/C(C)=N/NC(N)=S (stereo not given),> 100 µM (inactive),> 100 µM (inactive),,> 100 µM (inactive),> 100 µM (inactive),> 100 µM (inactive),> 100 µM (inactive),> 100 µM (inactive),> 100 µM (inactive)
CCCCCCCC(=O)NCC(O)CNC(=O)CCCCCCC,> 100 µM (inactive),> 100 µM (inactive),> 100 µM (inactive),> 100 µM (inactive),> 100 µM (inactive),> 100 µM (inactive),> 100 µM (inactive),> 100 µM (inactive),
C=CCOC(C)n1c(C)cc(=O)n(C(C)OCC=C)c1=O (stereo not given),> 100 µM (inactive),> 100 µM (inactive),> 100 µM (inactive),> 100 µM (inactive),> 100 µM (inactive),> 100 µM (inactive),> 100 µM (inactive),,
O=C(O)CCC(O)=C1S(=O)(=O)OCCOS1(=O)=O,> 100 µM (inactive),> 100 µM (inactive),> 100 µM (inactive),> 100 µM (inactive),> 100 µM (inactive),> 100 µM (inactive),> 100 µM (inactive),,
COc1ccc(NS(=O)(=O)c2ccc(/N=C3\C=C(Nc4ccc(S(=O)(=O)Nc5ccc(OC)nn5)cc4)C(=O)c4ccccc43)cc2)nn1,26.5 µM (inactive),22.2 µM (inactive),16 µM (inactive),17.9 µM (inactive),18.5 µM (inactive),57 µM (inactive),14.9 µM (inactive),22.6 µM (inactive),
CN1N=C2c3ccccc3OC(c3ccccc3)[C@H]2C1c1ccccc1 (stereo not given in full),44.1 µM (inactive),37.6 µM (inactive),> 100 µM (inactive),51.2 µM (inactive),95.3 µM (inactive),26.4 µM (inactive),> 100 µM (inactive),> 100 µM (inactive),
CC[C@](O)(C(=O)O)c1cc2n(c(=O)c1CO)Cc1cc3ccccc3nc1-2,0.025 µM (active),0.692 µM (active),0.0436 µM (active),0.0535 µM (active),,,0.025 µM (active),0.0968 µM (active),0.084 µM (active)
